Results taken from ChEMBL document CHEMBL5346860, “Cancer multidrug-resistance reversal by ABCB1 inhibition: A recent update” (Eur J Med Chem, 2022).

Key:
[1] = molecular target: T1, ATP-dependent translocase ABCB1 (Homo sapiens, UniProt P08183); experiment: Inhibition of ABCB1 in human HEK293 cells; format: cell-based
[2] = test system: HeLa S3; experiment: cells; details: Homo sapiens, HeLa S3, 72 h
Description: Antiproliferative activity against drug-sensitive human HeLaS3 cells assessed as cell growth inhibition incubated for 72 hrs by SRB assay

[3] = Antiproliferative activity against human Flp-In-293 cells expressing ABCB1 assessed as cell growth inhibition incubated for 72 hrs by SRB assay; format: toxicity, cell-based
[4] = cells; details: Homo sapiens, KBVIN, 72 h
Description: Antiproliferative activity against multidrug-resistant human KB-VIN cells assessed as cell growth inhibition incubated for 72 hrs by SRB assay

[5] = cells; details: Homo sapiens, EPP85-181RDB, 72 h
Description: Antiproliferative activity against daunorubicin-resistant human EPP85-181 cells incubated for 72 hrs by annexin-V-PI staining based flow cytometry

[6] = Antiproliferative activity against daunorubicin-resistant human EPG85-257 cells incubated for 72 hrs by annexin-V-PI staining based flow cytometry; format: functional, EPG85-257RDB
[7] = test system: P388/ADR; experiment: Potency index, ratio of verapamil IC50 to compound IC50 for reversal of ABCB1 mediated doxorubicin-resistance in mouse P388/ADR cells assessed as cell growth inhibition incubated for 48 hrs by MTT assay; format: functional
[8] = test system: P388/ADR; experiment: Reversal of ABCB1 mediated doxorubicin-resistance in mouse P388/ADR cells assessed as cell growth inhibition incubated for 48 hrs by MTT assay; format: functional, cell-based
[9] = molecular target: T1, ATP-dependent translocase ABCB1; experiment: Inhibition of ABCB1 in human HEK293 cells in the presence of doxorubicin; format: cell-based
[10] = Reversal of drug resistance in paclitaxel-resistant human TOV-21G cells assessed as fold change in paclitaxel IC50 in presence of paclitaxel; format: functional, paclitaxel-resistant human TOV-21G cell
[11] = Reversal of drug resistance in paclitaxel-resistant human OVCAR-3 cells assessed as fold decrease in paclitaxel IC50 in presence of paclitaxel; format: functional, paclitaxel-resistant human OVCAR-3 cell
[12] = molecular target: T1, ATP-dependent translocase ABCB1; experiment: Inhibition of ABCB1 in multi-drug resistance human HL-60 cells assessed as increase in daunorubicin accumulation; format: cell-based
[13] = test system: SH-SY5Y; experiment: Antiproliferative activity against human SH-SY5Y cells assessed as inhibition of cell survival by MTT assay; format: functional; details: read-out: LC50 (the source's name)
[14] = Antiproliferative activity against human BJ cells assessed as inhibition of cell survival by MTT assay; format: toxicity, cell-based; details: read-out: LC50 (the source's name)
[15] = Antiproliferative activity against human HaCaT cells assessed as inhibition of cell survival by MTT assay; format: toxicity, cell-based; details: read-out: LC50 (the source's name)
[16] = test system: HL-60; experiment: Antiproliferative activity against human HL-60 cells assessed as inhibition of cell survival by MTT assay; format: functional; details: read-out: LC50 (the source's name)
[17] = test system: U-937; experiment: Antiproliferative activity against human U-937 cells assessed as inhibition of cell survival by MTT assay; format: functional; details: read-out: LC50 (the source's name)
[18] = test system: HEK293; experiment: Antiproliferative activity against human HEK293 cells assessed as inhibition of cell survival by MTT assay; format: functional; details: read-out: LC50 (the source's name)
[19] = test system: A549/TR; experiment: Antiproliferative activity against human A549/Taxol cells overexpressing ABCB1 assessed as cell growth inhibition by MTT assay; format: functional, cell-based
[20] = test system: A2780/Taxol; experiment: Potentiation of paclitaxel induced antiproliferative activity against human A2780/Taxol cells overexpressing ABCB1 assessed as fold reduction in paclitaxel IC50 by MTT assay relative to control; format: functional
[21] = test system: A2780/Taxol; experiment: Antiproliferative activity against human A2780/Taxol cells overexpressing ABCB1 assessed as cell growth inhibition by MTT assay; format: functional, cell-based
[22] = test system: A549/TR; experiment: Potentiation of paclitaxel induced antiproliferative activity against human A549/Taxol cells overexpressing ABCB1 assessed as fold reduction in paclitaxel IC50 by MTT assay relative to control
[23] = test system: 4T1; experiment: Antitumor activity against mouse 4T1 cells implanted in Balb/c mouse assessed as tumor growth inhibition at 4 mg/kg administered once for every two days measured after 15 days by immunohistochemical analysis relative to control; format: functional; details: 4T1, 360 h, time 15 day
[24] = test system: ADR5000 cell line; experiment: Antitumor activity against human CEM/ADR5000 cells assessed as fold increase in doxorubicin accumulation; format: functional

T1 sequence (P08183 whole entry): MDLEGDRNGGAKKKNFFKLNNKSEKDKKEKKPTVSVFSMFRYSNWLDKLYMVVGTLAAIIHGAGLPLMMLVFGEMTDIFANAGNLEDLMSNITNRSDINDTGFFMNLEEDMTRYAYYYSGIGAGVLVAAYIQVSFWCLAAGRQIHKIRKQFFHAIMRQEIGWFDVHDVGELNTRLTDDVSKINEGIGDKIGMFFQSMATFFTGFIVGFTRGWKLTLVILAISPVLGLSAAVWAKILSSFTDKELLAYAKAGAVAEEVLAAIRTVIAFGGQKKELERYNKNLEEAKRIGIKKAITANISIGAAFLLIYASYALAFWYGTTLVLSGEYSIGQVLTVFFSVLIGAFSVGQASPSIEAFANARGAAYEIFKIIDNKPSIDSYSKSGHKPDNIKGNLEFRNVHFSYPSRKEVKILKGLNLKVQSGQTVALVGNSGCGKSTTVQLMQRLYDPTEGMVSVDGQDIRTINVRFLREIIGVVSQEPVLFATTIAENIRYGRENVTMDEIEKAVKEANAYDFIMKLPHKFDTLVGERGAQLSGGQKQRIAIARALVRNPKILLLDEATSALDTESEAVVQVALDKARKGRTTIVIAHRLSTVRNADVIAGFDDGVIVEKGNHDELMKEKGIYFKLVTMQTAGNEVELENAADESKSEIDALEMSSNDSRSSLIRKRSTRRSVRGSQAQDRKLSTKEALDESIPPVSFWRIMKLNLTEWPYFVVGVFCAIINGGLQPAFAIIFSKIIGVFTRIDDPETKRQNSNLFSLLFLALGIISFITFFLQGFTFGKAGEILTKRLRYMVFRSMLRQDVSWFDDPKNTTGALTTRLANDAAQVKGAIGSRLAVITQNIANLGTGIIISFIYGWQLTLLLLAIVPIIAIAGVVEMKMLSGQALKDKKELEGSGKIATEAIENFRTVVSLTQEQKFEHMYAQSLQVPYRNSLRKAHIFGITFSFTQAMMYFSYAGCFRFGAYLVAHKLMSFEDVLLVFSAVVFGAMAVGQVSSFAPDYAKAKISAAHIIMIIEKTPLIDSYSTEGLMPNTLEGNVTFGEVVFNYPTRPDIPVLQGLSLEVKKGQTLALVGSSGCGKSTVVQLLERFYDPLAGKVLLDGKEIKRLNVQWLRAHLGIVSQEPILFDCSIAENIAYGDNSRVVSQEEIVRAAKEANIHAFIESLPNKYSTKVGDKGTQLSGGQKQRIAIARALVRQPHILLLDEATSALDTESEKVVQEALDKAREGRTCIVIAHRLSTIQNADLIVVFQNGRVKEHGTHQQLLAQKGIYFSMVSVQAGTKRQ

## COc1cccc2c1C(=O)c1c(O)c3c(c(O)c1C2=O)C[C@@](O)(C(=O)CO)C[C@@H]3O[C@H]1C[C@H](N)[C@H](O)[C@H](C)O1 [DOXORUBICIN]
[1]
  IC50: 0.504 µM
[2]
  IC50: < 40 µM
[3]
  IC50 at 72 h: < 40 µM
[4]
  IC50: < 40 µM

## COc1cc([C@@H]2c3cc4c(cc3[C@@H](O[C@@H]3O[C@@H]5CO[C@@H](C)O[C@H]5[C@H](O)[C@H]3O)[C@H]3COC(=O)[C@H]23)OCO4)cc(OC)c1O [ETOPOSIDE]
[5]
  IC50: 62 µM
[6]
  IC5: 6.2 µM

## COc1ccc(CCN(C)CCCOc2ccc(S(=O)(=O)c3c(C(C)C)cn4ccccc34)cc2)cc1OC [FANTOFARONE]
[7]
  Ratio IC50: 4.5
[8]
  IC50: 30 µM

## COc1ccc2cc1Oc1ccc(cc1)C[C@H]1c3cc(c(OC)cc3CCN1C)Oc1c(OC)c(OC)c(OC)c3c1[C@H](C2)N(C)CC3 [HERNANDEZINE]
[9]
  IC50: 0.025 µM

## CS(=O)(=O)CCNCc1ccc(-c2ccc3ncnc(Nc4ccc(OCc5cccc(F)c5)c(Cl)c4)c3c2)o1 [LAPATINIB]
[10]
  fold change (FC): 20.7
[11]
  fold change (FC): 6.2

## CO[C@@H]1[C@H](N(C)C(=O)c2ccccc2)C[C@H]2O[C@]1(C)n1c3ccccc3c3c4c(c5c6ccccc6n2c5c31)C(=O)NC4 [MIDOSTAURIN]
[12]
  IC50: 0.068 µM

## Cc1cn(-c2cc(NC(=O)c3ccc(C)c(Nc4nccc(-c5cccnc5)n4)c3)cc(C(F)(F)F)c2)cn1 [NILOTINIB]
[13]
  CC50: 4.2 µM
[14]
  CC50: 5.6 µM
[15]
  CC50: 3.9 µM
[16]
  CC50: 1.7 µM
[17]
  CC50: 2.3 µM
[18]
  CC50: 5.9 µM

## COc1ccc(-c2cc(=O)c3c(OC)c(OC)c(OC)c(OC)c3o2)cc1OC [NOBILETIN]
[19]
  IC50: 9 µM
[20]
  fold change (FC): 15.92
[21]
  IC50: 9 µM
[22]
  fold change (FC): 15.92

## CC(=O)O[C@H]1C(=O)[C@@]2(C)[C@H]([C@H](OC(=O)c3ccccc3)[C@]3(O)C[C@H](OC(=O)[C@H](O)[C@@H](NC(=O)c4ccccc4)c4ccccc4)C(C)=C1C3(C)C)[C@]1(OC(C)=O)CO[C@@H]1C[C@@H]2O [PACLITAXEL]
[2]
  IC50: < 40 µM
[3]
  IC50 at 72 h: < 40 µM
[4]
  IC50: < 40 µM

## C=CC(=O)N1CCC(Oc2cc3c(Nc4ccc(Cl)c(Cl)c4F)ncnc3cc2OC)CC1 [POZIOTINIB]
[10]
  fold change (FC): 20.7
[11]
  fold change (FC): 6.2

## CC(=O)O[C@@H]1C[C@H](O)[C@@]23CO[C@@H](O)[C@]1(C)[C@@H]2C[C@@H](O)[C@]1(C)[C@@H]3C(=O)[C@H](OC(C)=O)[C@@]2(C)[C@H](c3ccoc3)C[C@H]3O[C@]321 [TOOSENDANIN]
[23]
  inhibition in vivo at 4 mg/kg: 90%

## COc1ccc(CCN(C)CCCC(C#N)(c2ccc(OC)c(OC)c2)C(C)C)cc1OC (configuration not stated) [VERAPAMIL]
[24]
  fold change (FC): 4.7

## CC[C@]1(O)C[C@H]2CN(CCc3c([nH]c4ccccc34)[C@@](C(=O)OC)(c3cc4c(cc3OC)N(C=O)[C@H]3[C@@](O)(C(=O)OC)[C@H](OC(C)=O)[C@]5(CC)C=CCN6CC[C@]43[C@@H]65)C2)C1 [VINCRISTINE]
[2]
  IC50: < 40 µM
[3]
  IC50 at 72 h: < 40 µM
[4]
  IC50: < 40 µM
